{"source": "patent US12089595B2", "about": "“Pseudomonas strains and their metabolites to control plant diseases” (T3 Bioscience, Inc., priority 2020, dated 2024)", "tested_on": "Xac", "experiment": "Bioactive fractions tested against Xac", "type": "cell-based, Xanthomonas axonopodis pv. citri", "conditions": "crude extracts 100 μg/mL; flash-RejuAgro A 20 μg/mL; HPLC-RejuAgro A 10 μg/mL"}
{"smiles": "CSC1=C(C)C(=O)C(=O)NC1=O", "note": "[RejuAgro A]", "values": [{"measurement": "inhibition of growth of Xac", "value": "almost abolish the growth"}]}
